# Source: ChEMBL document CHEMBL5505960, “Synthesis and evaluation of butylphthalide-scutellarein hybrids as multifunctional agents for the treatment of Alzheimer's disease” (Eur J Med Chem, 2024)
# Calls of active or inactive are those of the source. The calls are words filed in the database; no cut-off is given here.
# Columns and labels:
# [1] = target: Amyloid-beta precursor protein (Homo sapiens) (UniProt P05067); assay: Inhibition of amyloid beta (1 to 42) (unknown origin) self induced aggregation at 25 uM by ThT fluorescence assay relative to control
# Chain of Amyloid-beta precursor protein (Homo sapiens) (P05067 whole entry): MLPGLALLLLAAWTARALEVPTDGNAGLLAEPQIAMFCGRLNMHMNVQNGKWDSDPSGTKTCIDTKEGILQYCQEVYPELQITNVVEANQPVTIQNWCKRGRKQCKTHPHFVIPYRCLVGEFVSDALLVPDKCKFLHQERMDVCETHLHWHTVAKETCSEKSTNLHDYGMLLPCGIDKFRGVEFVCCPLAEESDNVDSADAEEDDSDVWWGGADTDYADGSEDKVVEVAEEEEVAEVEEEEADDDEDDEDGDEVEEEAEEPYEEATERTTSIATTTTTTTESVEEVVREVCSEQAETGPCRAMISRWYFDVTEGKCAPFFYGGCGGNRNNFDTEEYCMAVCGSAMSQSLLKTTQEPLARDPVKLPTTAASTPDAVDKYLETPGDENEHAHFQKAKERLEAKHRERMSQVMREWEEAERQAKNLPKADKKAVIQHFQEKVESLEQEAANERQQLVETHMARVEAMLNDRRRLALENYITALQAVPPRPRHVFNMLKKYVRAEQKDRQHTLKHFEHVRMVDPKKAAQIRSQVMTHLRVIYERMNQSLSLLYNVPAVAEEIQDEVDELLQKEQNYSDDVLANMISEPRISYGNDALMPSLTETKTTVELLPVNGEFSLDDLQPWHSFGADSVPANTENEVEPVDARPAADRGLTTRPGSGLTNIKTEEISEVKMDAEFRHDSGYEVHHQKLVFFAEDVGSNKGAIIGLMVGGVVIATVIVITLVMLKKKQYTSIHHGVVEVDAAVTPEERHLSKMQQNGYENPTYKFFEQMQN
# [2] = Antioxidant activity assessed as trolox equivalent of ORAC radical scavenging activity by ORAC-FL assay relative to trolox; assay type: functional
# [3] = target: Amyloid-beta precursor protein (Homo sapiens) (UniProt P05067); assay: Disaggregation of self-induced amyloid beta (1 to 42) (unknown origin) fibrils at 25 uM by ThT fluorescence assay relative to control
# [4] = target: Amyloid-beta precursor protein (Homo sapiens) (UniProt P05067); assay: Inhibition of Cu2+ induced amyloid beta (1 to 42)(unknown origin) fibrillation at 25 uM by ThT fluorescence assay relative to control
# BV-2 [5] = assay: Cytotoxicity against LPS-induced mouse BV-2 cells assessed as cell viability at 0.5 to 10 uM incubated for 24 hrs by MTT assay; assay type: toxicity, cell-based; details: bv-2, 24 h, dose 0.5-10 µM
# BV-2 [6] = assay: Antineuroinflammatory activity in LPS-induced mouse BV-2 cells assessed as inhibition of NO release at 0.5 uM preincubated for 30 mins followed by LPS stimulation and measured after 24 hrs relative to control; assay type: functional; set-up: scale not given: the % may be the effect or the level left; details: time 24.5 hrs
# HT-22 [7] = assay: Neuroprotective activity against amyloid beta (1 to 42) induced cell injury in mouse HT-22 cells assessed as cell viability at 50 uM incubated for 24 hrs by MTT assay; assay type: functional, cell-based
# BV-2 [8] = assay: Antineuroinflammatory activity in LPS-induced mouse BV-2 cells assessed as inhibition of IL-1 beta release at 2.5 uM preincubated for 30 mins followed by LPS stimulation and measured after 24 hrs relative to control; assay type: functional; set-up: scale not given: the % may be the effect or the level left; details: time 24.5 hrs
# HT-22 [9] = assay: Neuroprotective activity against amyloid beta (1 to 42)-induced injury in mouse HT-22 cells assessed as reversal of reduced cell synapse length at 10 uM measured after 24 hrs […]; assay type: functional, cell-based
# BV-2 [10] = assay: Antineuroinflammatory activity in LPS-induced mouse BV-2 cells assessed as inhibition of TNF-alpha release at 10 uM preincubated for 30 mins followed by LPS stimulation and measured after 24 hrs relative to control; assay type: functional; set-up: scale not given: the % may be the effect or the level left; details: time 24.5 hrs
# HT-22 [11] = assay: Neuroprotective activity against amyloid beta (1 to 42)-induced injury in mouse HT-22 cells assessed as reversal of reduction in cell numbers at 10 uM measured after 24 hrs by MTT assay; assay type: functional, cell-based
# BV-2 [12] = assay: Antineuroinflammatory activity in LPS-induced mouse BV-2 cells assessed as inhibition of IL-1 beta release at 10 uM preincubated for 30 mins followed by LPS stimulation and measured after 24 hrs relative to control; assay type: functional; set-up: scale not given: the % may be the effect or the level left; details: time 24.5 hrs
# BV-2 [13] = assay: Antineuroinflammatory activity in LPS-induced mouse BV-2 cells assessed as inhibition of NO release at 2.5 uM preincubated for 30 mins followed by LPS stimulation and measured after 24 hrs relative to control; assay type: functional; set-up: scale not given: the % may be the effect or the level left; details: time 24.5 hrs
# BV-2 [14] = assay: Antineuroinflammatory activity in LPS-induced mouse BV-2 cells assessed as inhibition of NO release at 10 uM preincubated for 30 mins followed by LPS stimulation and measured after 24 hrs relative to control; assay type: functional; set-up: scale not given: the % may be the effect or the level left; details: time 24.5 hrs
# BV-2 [15] = assay: Antineuroinflammatory activity in LPS-induced mouse BV-2 cells assessed as inhibition of TNF-alpha release at 0.5 uM preincubated for 30 mins followed by LPS stimulation and measured after 24 hrs relative to control; assay type: functional; set-up: scale not given: the % may be the effect or the level left; details: time 24.5 hrs
# BV-2 [16] = assay: Antineuroinflammatory activity in LPS-induced mouse BV-2 cells assessed as inhibition of IL-1 beta release at 0.5 uM preincubated for 30 mins followed by LPS stimulation and measured after 24 hrs relative to control; assay type: functional; set-up: scale not given: the % may be the effect or the level left; details: time 24.5 hrs
# BV-2 [17] = assay: Cytotoxicity against mouse BV-2 cells at upto 10 uM measured after 24 hrs by MTT assay; assay type: toxicity, cell-based; details: bv-2, 24 h
# BV-2 [18] = assay: Antineuroinflammatory activity in LPS-induced mouse BV-2 cells assessed as inhibition of TNF-alpha release at 2.5 uM preincubated for 30 mins followed by LPS stimulation and measured after 24 hrs relative to control; assay type: functional; set-up: scale not given: the % may be the effect or the level left; details: time 24.5 hrs
Structure (SMILES),inhibition [1] [%],Activity [2],other results
CCCCCC1OC(=O)c2c1cc(OC)c(O)c2OC (stereo not drawn),19.4,2.08,
CCCCCC1OC(=O)c2c1cc(OC)c(OC)c2OC (stereo not drawn),19.4,0.47,
C=CCCCCCC1OC(=O)c2c1cc(OC)c(OC)c2O (stereo not drawn),< 5,1.81,
CCCCC1OC(=O)c2c1cc(OC)c(O)c2OC (stereo not drawn),23.4,1.59,
C=CCC1OC(=O)c2c1cc(OC)c(OC)c2O (stereo not drawn),< 5,1.71,
C=CCCCCC1OC(=O)c2c1cc(OC)c(OC)c2OC (stereo not drawn),17.6,0.61,
CCCCCCC1OC(=O)c2c1cc(OC)c(OC)c2O (stereo not drawn),25.2,1.44,
CCCCCCC1OC(=O)c2c1cc(OC)c(O)c2O (stereo not drawn),83.3,2.5,Activity [3]: 32.3%; inhibition [4]: 30.5%
C=CC(C)(C)C1OC(=O)c2c1cc(OC)c(OC)c2O (stereo not drawn),37.1,1.94,
C=CCCC1OC(=O)c2c1cc(OC)c(OC)c2O (stereo not drawn),< 5,1.93,
CCCCCCCC1OC(=O)c2c1cc(OC)c(OC)c2OC (stereo not drawn),16.5,0.62,
C=CCCCC1OC(=O)c2c1cc(OC)c(OC)c2OC (stereo not drawn),19.2,0.71,
CCCCC1OC(=O)c2c1cc(OC)c(OC)c2O (stereo not drawn),30.2,1.27,
CCCCCCC1OC(=O)c2c1cc(OC)c(OC)c2OC (stereo not drawn),25.2,0.68,
CCCCC1OC(=O)c2c1cc(OC)c(OC)c2OC (stereo not drawn),15.9,0.4,
CCCCC1OC(=O)c2c1cc(OC)c(O)c2O (stereo not drawn),78.8,2.36,Activity [3]: 39.5%; inhibition [4]: 28.5%
C=CC(C)(C)C1OC(=O)c2c1cc(OC)c(OC)c2OC (stereo not drawn),15,0.45,
C=CCCCCCC1OC(=O)c2c1cc(OC)c(OC)c2OC (stereo not drawn),19.2,0.46,
CCCC1OC(=O)c2c1cc(OC)c(OC)c2OC (stereo not drawn),21.8,0.39,
CCCCCCC1OC(=O)c2c1cc(OC)c(O)c2OC (stereo not drawn),29.1,1.6,
CCCCCC1OC(=O)c2c1cc(OC)c(OC)c2O (stereo not drawn),35.1,1.36,
C=CCCCCC1OC(=O)c2c1cc(OC)c(OC)c2O (stereo not drawn),19.2,1.77,
CCCCCCCC1OC(=O)c2c1cc(OC)c(OC)c2O (stereo not drawn),26.4,1.34,
C=CCCC1OC(=O)c2c1cc(OC)c(OC)c2OC (stereo not drawn),24.3,0.53,
C=CCCCC1OC(=O)c2c1cc(OC)c(OC)c2O (stereo not drawn),24.6,1.68,
CCCCC1OC(=O)c2ccccc21 (racemic) [RAC-3-N-BUTYLPHTHALIDE],,0.23,Activity (BV-2 [5]): Non-Toxic; Activity (BV-2 [6]): 13.3%; Activity (HT-22 [7]): Active; Activity (BV-2 [8]): 21.1%; Activity (HT-22 [9]): inactive; Activity (BV-2 [10]): 40.6%; Activity (HT-22 [11]): inactive; Activity (BV-2 [12]): 31.3%; Activity (BV-2 [13]): 23.2%; Activity (BV-2 [14]): 45.5%; Activity (BV-2 [15]): 12.6%; Activity (BV-2 [16]): 11.5%; Activity (BV-2 [17]): Non-Toxic; Activity (BV-2 [18]): 24%
C=CCC1OC(=O)c2c1cc(OC)c(OC)c2OC (stereo not drawn),25.4,0.41,
CCCC1OC(=O)c2c1cc(OC)c(OC)c2O (stereo not drawn),27.3,1.21,
